Assay results published in patent US8962844B2, “1,3,4-oxadiazole and 1,3,4-thiadiazole β-lactamase inhibitors” (priority 2012, dated 2015).
Structures can show the parent of a compound that is named as a salt.

The compounds below were run on bacterial strains that express the class D cephalosporinase OXA-15 (assay: Standard BLI potentiation MIC / synergy MIC (sMIC) assays run in the presence of a β-lactam, OXA-15 expressing strains). Settings: BLI in combination with a β-lactam; comparison with Avibactam (comparator compound CCC).
Assay type: cell-based, E. coli
From the text: Unless otherwise indicated, the activity of the BLI compounds can be described by the MIC value obtained from a Synergy MIC assay or a BLI potentiation assay (e.g as described herein), both of which are run in the presence of a β-lactam.
A set of β-lactamase expressing isogenic E. coli strains was constructed by cloning a β-lactamase gene into a customized derivative of pBR322 (GenBank Accession Number J01749) and transforming the engineered plasmids into E. coli. The NdeI restriction site within the plasmid backbone of pBR322 was removed to generate pBR322 ΔNdeI. The pBR322 ΔNdeI vector itself, minus the blaTEM-1 gene, was amplified using two primers: (1) pBR-Pbla 5′-cgcatatgactettectttttcaatattattg-3, SEQ ID 1, a primer with an engineered NdeI restriction site at the 3′ end of the blaTEM-1 promoter and (2) pBR-vec-1 5′-[…]-3′, SEQ ID 2, a primer with an engineered BamHI restriction site at the 3′ end of the blaTEM-1 open reading frame. The chloramphenicol resistance gene, cat, was generated by PCR amplification from pKD3 (GenBank Accession Number AY048742) using primers with an engineered NdeI restriction site at the 5′ end (Pbla-cat 5′-[…]-3′, SEQ ID 3) and an engineered BamHI restriction site at the 3′ end (Vec-1-cat 5′-[…]-3′, SEQ ID 4) of the resistance gene. The two PCR products, pBR322 ΔNdeI and cat were ligated together generating pBR-CBST (pBR322 ΔNdeI ΔTEM-1::cat Seq. ID 5) which retains both the pBR322 tetracycline resistance cassette, tetA, and the plasmid origin of replication but the blaTEM-1 gene was replaced by the cat gene.
Using this engineering strategy a number of plasmids producing β-lactamase genes from different classes (see below) were generated using synthetic genes with an engineered NdeI restriction site at the 5′ end and BamHI restriction site at the 3′ end of each gene (GenScript). Both the synthetic β-lactamase genes and cat gene were ligated into the NdeI/BamHI sites of the pBR322 ΔNdeI PCR product and transformed into electrocompetent E. coli ElectroMax DH10B (Invitrogen/Life Technologies). E. coli DH10B harboring the recombinant plasmids were selected on LB agar (supplemented with 25 μg/mL tetracycline) and single isolated colonies were then inoculated into 5 mL LB media (supplemented with 25 μg/mL tetracycline), and incubated at 37° C. with aeration (250 rpm) for 18 hrs. The cultures were frozen back at −80° C. in 20% glycerol. The DNA sequence of the cloned β-lactamase genes was confirmed. The β-lactamase gene expression in the recombinant E. coli strains was driven by the blaTEM-1 promoter in the pBR-CBST plasmid and was characterized by MIC profiling of the E. coli recombinant strains against comparator β-lactam/BLI combinations in broth microdilution assay.
The experimental protocol was performed according to Clinical and Laboratory Standards Institute (CLSI) guidelines with modifications as described below (CLSI guidelines can be derived from the CLSI document M07-A9 published in January 2012: “Methods for Dilution Antimicrobial Susceptibility Tests for Bacteria That Grow Aerobically; Approved Standard-Ninth Edition”).
To prepare for MIC testing, frozen glycerol stocks of clinical isolates (Klebsiella pneumoniae, Eschericia coli, Enterobacter spp, Citrobacter spp, or Pseudomonas aeruginosa) were used to streak for isolated colonies on rich, non-selective, tryptic soy agar containing 5% sheep's blood (TSAB). Frozen glycerol stocks of laboratory engineered, isogenic E. coli strains, which contain cloned β-lactamase expressing plasmids were used to streak for isolated colonies on rich, selective LB agar supplemented with 25 μg/mL tetracycline to maintain the plasmid. All strains were incubated at 37° C. for 18-24 hrs.
On the day of testing, primary cultures were started by scraping off 5-10 colonies from the TSAB plates containing clinical strains or the tetracycline supplemented LB plates containing engineered strains. […]

SMILES | activity against bacterial strains that express the class D cephalosporinase OXA-15, compared with Avibactam
NC1CCN(c2nnc([C@@H]3CC[C@@H]4CN3C(=O)N4OS(=O)(=O)O)o2)CC1 [Compound 773, (2S,5R)-2-(5-(4-aminopiperidin-1-yl)-1,3,4-oxadiazol-2-yl)-7-oxo-1,6-diazabicyclo[3.2.1]octan-6-yl hydrogen sulfate] | more active than Avibactam
O=C1N2C[C@@H](CC[C@H]2c2nnc([C@@H]3CNCCN3)o2)N1OS(=O)(=O)O [Compound 778, (2S,5R)-7-oxo-2-(5-((S)-piperazin-2-yl)-1,3,4-oxadiazol-2-yl)-1,6-diazabicyclo[3.2.1]octan-6-yl hydrogen sulfate] | more active than Avibactam
NCC(O)c1nnc([C@@H]2CC[C@@H]3CN2C(=O)N3OS(=O)(=O)O)o1 (stereo partly drawn) [Compound 715, (2S,5R)-2-(5-(2-amino-1-hydroxyethyl)-1,3,4-oxadiazol-2-yl)-7-oxo-1,6-diazabicyclo[3.2.1]octan-6-yl hydrogen sulfate] | more active than Avibactam
N[C@H]1CC[C@H](c2nnc([C@@H]3CC[C@@H]4CN3C(=O)N4OS(=O)(=O)O)o2)CC1 [Compound 781, (2S,5R)-2-(5-((1r,4S)-4-aminocyclohexyl)-1,3,4-oxadiazol-2-yl)-7-oxo-1,6-diazabicyclo[3.2.1]octan-6-yl hydrogen sulfate] | more active than Avibactam
O=C1N2C[C@@H](CC[C@H]2c2nnc(N3CCNCC3)s2)N1OS(=O)(=O)O [Compound 797, (2S,5R)-7-oxo-2-(5-(piperazin-1-yl)-1,3,4-thiadiazol-2-yl)-1,6-diazabicyclo[3.2.1]octan-6-yl hydrogen sulfate] | more active than Avibactam
NCC(N)c1nnc([C@@H]2CC[C@@H]3CN2C(=O)N3OS(=O)(=O)O)o1 (stereo partly drawn) [Compound 717, (2S,5R)-2-(5-(1,2-diaminoethyl)-1,3,4-oxadiazol-2-yl)-7-oxo-1,6-diazabicyclo[3.2.1]octan-6-yl hydrogen sulfate] | more active than Avibactam
N=C(N)NCc1nnc([C@@H]2CC[C@@H]3CN2C(=O)N3OS(=O)(=O)O)o1 [Compound 704, (2S,5R)-2-(5-(guanidinomethyl)-1,3,4-oxadiazol-2-yl)-7-oxo-1,6-diazabicyclo[3.2.1]octan-6-yl hydrogen sulfate] | more active than Avibactam
O=C1N2C[C@@H](CC[C@H]2c2nnc(N3CCNCC3)o2)N1OS(=O)(=O)O [Compound 713, (2S,5R)-7-oxo-2-(5-(piperazin-1-yl)-1,3,4-oxadiazol-2-yl)-1,6-diazabicyclo[3.2.1]octan-6-yl hydrogen sulfate] | more active than Avibactam
O=C1N2C[C@@H](CC[C@H]2c2nnc(CC3CNC3)o2)N1OS(=O)(=O)O [Compound 725, (2S,5R)-2-(5-(azetidin-3-ylmethyl)-1,3,4-oxadiazol-2-yl)-7-oxo-1,6-diazabicyclo[3.2.1]octan-6-yl hydrogen sulfate] | more active than Avibactam
O=C1N2C[C@@H](CC[C@H]2c2nnc(CCCN3CCNCC3)o2)N1OS(=O)(=O)O [Compound 792, (2S,5R)-7-oxo-2-(5-(3-(piperazin-1-yl)propyl)-1,3,4-oxadiazol-2-yl)-1,6-diazabicyclo[3.2.1]octan-6-yl hydrogen sulfate] | more active than Avibactam
Nc1nnc([C@@H]2CC[C@@H]3CN2C(=O)N3OS(=O)(=O)O)o1 [Compound 707, (2S,5R)-2-(5-amino-1,3,4-oxadiazol-2-yl)-7-oxo-1,6-diazabicyclo[3.2.1]octan-6-yl hydrogen sulfate] | more active than Avibactam
O=C1N2C[C@@H](CC[C@H]2c2nnc(C3CCNCC3)s2)N1OS(=O)(=O)O [Compound 719, (2S,5R)-7-oxo-2-(5-(piperidin-4-yl)-1,3,4-thiadiazol-2-yl)-1,6-diazabicyclo[3.2.1]octan-6-yl hydrogen sulfate] | more active than Avibactam
NCC(O)Cc1nnc([C@@H]2CC[C@@H]3CN2C(=O)N3OS(=O)(=O)O)o1 (stereo partly drawn) [Compound 733, (2S,5R)-2-(5-(3-amino-2-hydroxypropyl)-1,3,4-oxadiazol-2-yl)-7-oxo-1,6-diazabicyclo[3.2.1]octan-6-yl hydrogen sulfate] | more active than Avibactam
N=C(N)N1CCC(c2nnc([C@@H]3CC[C@@H]4CN3C(=O)N4OS(=O)(=O)O)o2)CC1 [Compound 712, (2S,5R)-2-(5-(1-carbamimidoylpiperidin-4-yl)-1,3,4-oxadiazol-2-yl)-7-oxo-1,6-diazabicyclo[3.2.1]octan-6-yl hydrogen sulfate] | more active than Avibactam
O=C1N2C[C@@H](CC[C@H]2c2nnc(CNC3CCNCC3)o2)N1OS(=O)(=O)O [Compound 769, (2S,5R)-7-oxo-2-(5-((piperidin-4-ylamino)methyl)-1,3,4-oxadiazol-2-yl)-1,6-diazabicyclo[3.2.1]octan-6-yl hydrogen sulfate] | more active than Avibactam
N[C@H]1CC[C@@H](c2nnc([C@@H]3CC[C@@H]4CN3C(=O)N4OS(=O)(=O)O)o2)CC1 [Compound 780, (2S,5R)-2-(5-((1s,4R)-4-aminocyclohexyl)-1,3,4-oxadiazol-2-yl)-7-oxo-1,6-diazabicyclo[3.2.1]octan-6-yl hydrogen sulfate] | more active than Avibactam
N=C(N)N[C@H]1C[C@H](c2nnc([C@@H]3CC[C@@H]4CN3C(=O)N4OS(=O)(=O)O)o2)C1 [Compound 748, (2S,5R)-2-(5-((1r,3S)-3-guanidinocyclobutyl)-1,3,4-oxadiazol-2-yl)-7-oxo-1,6-diazabicyclo[3.2.1]octan-6-yl hydrogen sulfate] | more active than Avibactam
NCCNCCc1nnc([C@@H]2CC[C@@H]3CN2C(=O)N3OS(=O)(=O)O)o1 [Compound 716, (2S,5R)-2-(5-(2-((2-aminoethyl)amino)ethyl)-1,3,4-oxadiazol-2-yl)-7-oxo-1,6-diazabicyclo[3.2.1]octan-6-yl hydrogen sulfate] | more active than Avibactam
N[C@H]1C[C@H](NCc2nnc([C@@H]3CC[C@@H]4CN3C(=O)N4OS(=O)(=O)O)o2)C1 [Compound 757, (2S,5R)-2-(5-((((1r,3S)-3-aminocyclobutyl)amino)methyl)-1,3,4-oxadiazol-2-yl)-7-oxo-1,6-diazabicyclo[3.2.1]octan-6-yl hydrogen sulfate] | more active than Avibactam
N=C(N)NCCCc1nnc([C@@H]2CC[C@@H]3CN2C(=O)N3OS(=O)(=O)O)o1 [Compound 714, (2S,5R)-2-(5-(3-guanidinopropyl)-1,3,4-oxadiazol-2-yl)-7-oxo-1,6-diazabicyclo[3.2.1]octan-6-yl hydrogen sulfate] | more active than Avibactam
